{"source": "ChEMBL document CHEMBL1201862", "about": "“PubChem BioAssay data set” (2004)", "test_in_all_cases": "DTP human tumour cell line panel, 48 h", "key": {"MDA-MB-231": {"test_system": "MDA-MB-231"}, "LOX IMVI": {"test_system": "LOX IMVI"}, "UACC-257": {"test_system": "UACC-257"}, "SF-295": {"test_system": "SF-295"}, "MDA-N": {"test_system": "MDA-N"}, "SF-539": {"test_system": "SF-539"}, "NCI-H460": {"test_system": "NCI-H460"}, "SK-OV-3": {"test_system": "SK-OV-3"}, "OVCAR-5": {"test_system": "OVCAR-5"}, "Hs-578T": {"test_system": "Hs-578T"}, "BT-549": {"test_system": "BT-549"}, "SK-MEL-2": {"test_system": "SK-MEL-2"}, "SK-MEL-28": {"test_system": "SK-MEL-28"}, "CAKI-1": {"test_system": "CAKI-1"}, "SN12C": {"test_system": "SN12C"}, "SW-620": {"test_system": "SW-620"}, "HOP-62": {"test_system": "HOP-62"}, "OVCAR-8": {"test_system": "OVCAR-8"}, "SNB-19": {"test_system": "SNB-19"}, "TK-10": {"test_system": "TK-10"}}, "note": "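Where inhibition never reached the appropriate level, the endpoint shown equals the highest concentration tested. Otherwise, values were interpolated linearly from a five-concentration, 48-hour dose response in 96-well plates. Abbreviation: GI50, concentration required for 50% inhibition of growth.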 The source made the active and inactive calls. No stated cut-off is given here; in the data, active = GI50 up to about 1.1 µM and inactive = higher."}
{"compound": "N=C(N)SCc1ccc(Cl)c2ccccc12.O=[N+]([O-])c1ccc(O)c([N+](=O)[O-])c1", "values": [{"measurement": "GI50", "setting": "MDA-MB-231", "value": "12.7 µM (inactive)"}, {"measurement": "GI50", "setting": "LOX IMVI", "value": "14.9 µM (inactive)"}, {"measurement": "GI50", "setting": "UACC-257", "value": "4.19 µM (inactive)"}, {"measurement": "GI50", "setting": "SF-295", "value": "9.91 µM (inactive)"}, {"measurement": "GI50", "setting": "MDA-N", "value": "11.1 µM (inactive)"}, {"measurement": "GI50", "setting": "SF-539", "value": "5.2 µM (inactive)"}, {"measurement": "GI50", "setting": "NCI-H460", "value": "7.55 µM (inactive)"}, {"measurement": "GI50", "setting": "SK-OV-3", "value": "15.3 µM (inactive)"}, {"measurement": "GI50", "setting": "OVCAR-5", "value": "13.5 µM (inactive)"}, {"measurement": "GI50", "setting": "Hs-578T", "value": "20.7 µM (inactive)"}, {"measurement": "GI50", "setting": "BT-549", "value": "15.6 µM (inactive)"}, {"measurement": "GI50", "setting": "SK-MEL-2", "value": "11.6 µM (inactive)"}, {"measurement": "GI50", "setting": "SK-MEL-28", "value": "12.6 µM (inactive)"}, {"measurement": "GI50", "setting": "CAKI-1", "value": "11.7 µM (inactive)"}, {"measurement": "GI50", "setting": "SN12C", "value": "11 µM (inactive)"}, {"measurement": "GI50", "setting": "SW-620", "value": "11.7 µM (inactive)"}, {"measurement": "GI50", "setting": "HOP-62", "value": "14.1 µM (inactive)"}, {"measurement": "GI50", "setting": "OVCAR-8", "value": "22.1 µM (inactive)"}, {"measurement": "GI50", "setting": "SNB-19", "value": "16.2 µM (inactive)"}, {"measurement": "GI50", "setting": "TK-10", "value": "6.84 µM (inactive)"}]}
{"compound": "O=C(c1ccccc1)c1ccc(N2C(=O)/C(=C/c3cccc([N+](=O)[O-])c3)N=C2c2ccccc2)c(N2C(=O)/C(=C/c3cccc([N+](=O)[O-])c3)N=C2c2ccccc2)c1", "values": [{"measurement": "GI50", "setting": "MDA-MB-231", "value": "> 100 µM (inactive)"}, {"measurement": "GI50", "setting": "LOX IMVI", "value": "42 µM (inactive)"}, {"measurement": "GI50", "setting": "UACC-257", "value": "36.2 µM (inactive)"}, {"measurement": "GI50", "setting": "SF-295", "value": "16.2 µM (inactive)"}, {"measurement": "GI50", "setting": "MDA-N", "value": "21.7 µM (inactive)"}, {"measurement": "GI50", "setting": "SF-539", "value": "26.3 µM (inactive)"}, {"measurement": "GI50", "setting": "NCI-H460", "value": "5.28 µM (inactive)"}, {"measurement": "GI50", "setting": "SK-OV-3", "value": "> 100 µM (inactive)"}, {"measurement": "GI50", "setting": "OVCAR-5", "value": "> 100 µM (inactive)"}, {"measurement": "GI50", "setting": "Hs-578T", "value": "30.7 µM (inactive)"}, {"measurement": "GI50", "setting": "BT-549", "value": "35.5 µM (inactive)"}, {"measurement": "GI50", "setting": "SK-MEL-2", "value": "26.4 µM (inactive)"}, {"measurement": "GI50", "setting": "SK-MEL-28", "value": "78.3 µM (inactive)"}, {"measurement": "GI50", "setting": "CAKI-1", "value": "49.8 µM (inactive)"}, {"measurement": "GI50", "setting": "SN12C", "value": "98.4 µM (inactive)"}, {"measurement": "GI50", "setting": "SW-620", "value": "32.9 µM (inactive)"}, {"measurement": "GI50", "setting": "HOP-62", "value": "75.3 µM (inactive)"}, {"measurement": "GI50", "setting": "OVCAR-8", "value": "42.5 µM (inactive)"}, {"measurement": "GI50", "setting": "SNB-19", "value": "54.8 µM (inactive)"}, {"measurement": "GI50", "setting": "TK-10", "value": "42.5 µM (inactive)"}]}
{"compound": "CC1CCC2(OC1)OC1CC3C4CC=C5CC(OC6OC(CO)C(OC7OC(C)C(OC8OC(C)C(O)C(O)C8O)C(O)C7O)C(O)C6OC6OC(C)C(O)C(O)C6O)CCC5(C)C4CCC3(C)C1C2C", "note": "(stereo not given)", "values": [{"measurement": "GI50", "setting": "MDA-MB-231", "value": "0.0628 µM (active)"}, {"measurement": "GI50", "setting": "LOX IMVI", "value": "0.185 µM (active)"}, {"measurement": "GI50", "setting": "UACC-257", "value": "0.74 µM (active)"}, {"measurement": "GI50", "setting": "SF-295", "value": "0.308 µM (active)"}, {"measurement": "GI50", "setting": "MDA-N", "value": "0.4 µM (active)"}, {"measurement": "GI50", "setting": "SF-539", "value": "0.394 µM (active)"}, {"measurement": "GI50", "setting": "NCI-H460", "value": "1.61 µM (inactive)"}, {"measurement": "GI50", "setting": "SK-OV-3", "value": "1.07 µM (active)"}, {"measurement": "GI50", "setting": "OVCAR-5", "value": "1.12 µM (inactive)"}, {"measurement": "GI50", "setting": "Hs-578T", "value": "0.264 µM (active)"}, {"measurement": "GI50", "setting": "BT-549", "value": "1.66 µM (inactive)"}, {"measurement": "GI50", "setting": "SK-MEL-2", "value": "1.21 µM (inactive)"}, {"measurement": "GI50", "setting": "SK-MEL-28", "value": "0.612 µM (active)"}, {"measurement": "GI50", "setting": "CAKI-1", "value": "1.29 µM (inactive)"}, {"measurement": "GI50", "setting": "SN12C", "value": "0.267 µM (active)"}, {"measurement": "GI50", "setting": "SW-620", "value": "1.48 µM (inactive)"}, {"measurement": "GI50", "setting": "HOP-62", "value": "2.56 µM (inactive)"}, {"measurement": "GI50", "setting": "OVCAR-8", "value": "0.326 µM (active)"}, {"measurement": "GI50", "setting": "SNB-19", "value": "0.262 µM (active)"}, {"measurement": "GI50", "setting": "TK-10", "value": "1.39 µM (inactive)"}]}
